# Test results: ChEMBL document CHEMBL1201862, “PubChem BioAssay data set” (2004)
#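 Where inhibition never reached the appropriate level, the endpoint shown equals the highest concentration tested. Otherwise, values were interpolated linearly from a five-concentration, 48-hour dose response in 96-well plates. Abbreviation: GI50, concentration required for 50% inhibition of growth.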 Calls of active or inactive are those of the source. Cut-off read from the data, not from the text of the source: active = GI50 up to about 1.1 µM and inactive = higher.
# Columns and labels:
# Test in all cases: growth of human tumour cells (NCI), 48 h
# SK-MEL-5 = test system: SK-MEL-5
# OVCAR-5 = test system: OVCAR-5
# CAKI-1 = test system: CAKI-1
# EKVX = test system: EKVX
# OVCAR-4 = test system: OVCAR-4
# MDA-N = test system: MDA-N
# COLO 205 = test system: COLO 205
# PC-3 = test system: PC-3
# T47D = test system: T47D
# OVCAR-3 = test system: OVCAR-3
# SF-268 = test system: SF-268
# HOP-92 = test system: HOP-92
# RXF 393 = test system: RXF 393
# M14 = test system: M14
# SNB-19 = test system: SNB-19
# NCI-H226 = test system: NCI-H226
# UACC-257 = test system: UACC-257
# TK-10 = test system: TK-10
# OVCAR-8 = test system: OVCAR-8
# ACHN = test system: ACHN
# NCI/ADR-RES = test system: NCI/ADR-RES
# HCC 2998 = test system: HCC 2998
# UO-31 = test system: UO-31
# K562 = test system: K562
# SW-620 = test system: SW-620
# SF-295 = test system: SF-295
# Malme-3M = test system: Malme-3M
# CCRF-CEM = test system: CCRF-CEM
# MDA-MB-435 = test system: MDA-MB-435
# A549 = test system: A549
# HCT-116 = test system: HCT-116
# HCT-15 = test system: HCT-15
# U-251 = test system: U-251
# A498 = test system: A498
# NCI-H522 = test system: NCI-H522
# 786-0 = test system: 786-0
# MCF7 = test system: MCF7
# NCI-H460 = test system: NCI-H460
# UACC-62 = test system: UACC-62
# SF-539 = test system: SF-539
# KM12 = test system: KM12
# Hs-578T = test system: Hs-578T
# BT-549 = test system: BT-549
# HT-29 = test system: HT-29
# SK-OV-3 = test system: SK-OV-3
# SN12C = test system: SN12C
# IGROV-1 = test system: IGROV-1
# MDA-MB-231 = test system: MDA-MB-231
# MOLT-4 = test system: MOLT-4
# DU-145 = test system: DU-145
# SK-MEL-2 = test system: SK-MEL-2
# NCI-H23 = test system: NCI-H23
# RPMI-8226 = test system: RPMI-8226
# SR = test system: SR
# LOX IMVI = test system: LOX IMVI
# HL-60 = test system: HL-60
# HOP-62 = test system: HOP-62
# SNB-75 = test system: SNB-75
# SK-MEL-28 = test system: SK-MEL-28
structure (smiles),measurement,setting,value
CC1=CC(=O)N(n2c(Cc3ccccc3)n[nH]c2=O)C1=O,GI50,SK-MEL-5,> 100 µM (inactive)
same,GI50,OVCAR-5,> 100 µM (inactive)
same,GI50,CAKI-1,> 100 µM (inactive)
same,GI50,EKVX,> 100 µM (inactive)
same,GI50,OVCAR-4,> 100 µM (inactive)
same,GI50,MDA-N,> 100 µM (inactive)
same,GI50,COLO 205,> 100 µM (inactive)
same,GI50,PC-3,93.5 µM (inactive)
same,GI50,T47D,98.4 µM (inactive)
same,GI50,OVCAR-3,> 100 µM (inactive)
same,GI50,SF-268,> 100 µM (inactive)
same,GI50,HOP-92,> 100 µM (inactive)
same,GI50,RXF 393,> 100 µM (inactive)
same,GI50,M14,> 100 µM (inactive)
same,GI50,SNB-19,> 100 µM (inactive)
same,GI50,NCI-H226,> 100 µM (inactive)
same,GI50,UACC-257,> 100 µM (inactive)
same,GI50,TK-10,> 100 µM (inactive)
same,GI50,OVCAR-8,> 100 µM (inactive)
same,GI50,ACHN,> 100 µM (inactive)
same,GI50,NCI/ADR-RES,> 100 µM (inactive)
same,GI50,HCC 2998,> 100 µM (inactive)
same,GI50,UO-31,> 100 µM (inactive)
same,GI50,K562,71.9 µM (inactive)
same,GI50,SW-620,83.9 µM (inactive)
same,GI50,SF-295,> 100 µM (inactive)
same,GI50,Malme-3M,> 100 µM (inactive)
same,GI50,CCRF-CEM,23.3 µM (inactive)
same,GI50,MDA-MB-435,> 100 µM (inactive)
same,GI50,A549,> 100 µM (inactive)
same,GI50,HCT-116,> 100 µM (inactive)
same,GI50,HCT-15,> 100 µM
same,GI50,U-251,> 100 µM (inactive)
same,GI50,A498,> 100 µM (inactive)
same,GI50,NCI-H522,> 100 µM (inactive)
same,GI50,786-0,> 100 µM (inactive)
same,GI50,MCF7,> 100 µM (inactive)
same,GI50,NCI-H460,> 100 µM (inactive)
same,GI50,UACC-62,> 100 µM (inactive)
same,GI50,SF-539,> 100 µM (inactive)
same,GI50,KM12,> 100 µM (inactive)
same,GI50,Hs-578T,> 100 µM (inactive)
same,GI50,BT-549,> 100 µM (inactive)
same,GI50,HT-29,> 100 µM (inactive)
same,GI50,SK-OV-3,> 100 µM (inactive)
same,GI50,SN12C,> 100 µM (inactive)
same,GI50,IGROV-1,> 100 µM (inactive)
same,GI50,MDA-MB-231,> 100 µM (inactive)
same,GI50,MOLT-4,33.9 µM (inactive)
same,GI50,DU-145,> 100 µM (inactive)
same,GI50,SK-MEL-2,> 100 µM (inactive)
same,GI50,NCI-H23,> 100 µM (inactive)
same,GI50,RPMI-8226,52 µM (inactive)
same,GI50,SR,72.6 µM (inactive)
same,GI50,LOX IMVI,83.4 µM (inactive)
CN(C)CCNC(=O)c1cccc(C(=O)Nc2ccccc2)c1[N+](=O)[O-],GI50,SK-MEL-5,> 100 µM (inactive)
same,GI50,OVCAR-5,> 100 µM (inactive)
same,GI50,HL-60,> 100 µM (inactive)
same,GI50,CAKI-1,> 100 µM (inactive)
same,GI50,MDA-N,> 100 µM (inactive)
same,GI50,COLO 205,54.2 µM (inactive)
same,GI50,PC-3,> 100 µM (inactive)
same,GI50,T47D,> 100 µM (inactive)
same,GI50,HOP-62,> 100 µM (inactive)
same,GI50,OVCAR-3,> 100 µM (inactive)
same,GI50,SF-268,> 100 µM (inactive)
same,GI50,M14,> 100 µM (inactive)
same,GI50,SNB-19,> 100 µM (inactive)
same,GI50,NCI-H226,> 100 µM (inactive)
same,GI50,UACC-257,> 100 µM (inactive)
same,GI50,TK-10,> 100 µM (inactive)
same,GI50,OVCAR-8,> 100 µM (inactive)
same,GI50,ACHN,> 100 µM (inactive)
same,GI50,NCI/ADR-RES,> 100 µM (inactive)
same,GI50,HCC 2998,> 100 µM (inactive)
same,GI50,UO-31,> 100 µM (inactive)
same,GI50,K562,> 100 µM (inactive)
same,GI50,SW-620,> 100 µM (inactive)
same,GI50,SF-295,> 100 µM (inactive)
same,GI50,Malme-3M,48.5 µM (inactive)
same,GI50,CCRF-CEM,> 100 µM (inactive)
same,GI50,MDA-MB-435,> 100 µM (inactive)
same,GI50,A549,> 100 µM (inactive)
same,GI50,HCT-116,> 100 µM (inactive)
same,GI50,HCT-15,> 100 µM
same,GI50,U-251,> 100 µM (inactive)
same,GI50,A498,> 100 µM (inactive)
same,GI50,NCI-H522,> 100 µM (inactive)
same,GI50,SNB-75,34.8 µM (inactive)
same,GI50,786-0,> 100 µM (inactive)
same,GI50,MCF7,> 100 µM (inactive)
same,GI50,NCI-H460,> 100 µM (inactive)
same,GI50,UACC-62,> 100 µM (inactive)
same,GI50,SF-539,> 100 µM (inactive)
same,GI50,KM12,> 100 µM (inactive)
same,GI50,Hs-578T,> 100 µM (inactive)
same,GI50,BT-549,34 µM (inactive)
same,GI50,HT-29,71.8 µM (inactive)
same,GI50,SK-OV-3,> 100 µM (inactive)
same,GI50,SN12C,> 100 µM (inactive)
same,GI50,IGROV-1,> 100 µM (inactive)
same,GI50,MDA-MB-231,> 100 µM (inactive)
same,GI50,MOLT-4,> 100 µM (inactive)
same,GI50,DU-145,> 100 µM (inactive)
same,GI50,SK-MEL-2,> 100 µM (inactive)
same,GI50,NCI-H23,> 100 µM (inactive)
same,GI50,SR,> 100 µM (inactive)
same,GI50,SK-MEL-28,> 100 µM (inactive)
